Test [1] has as its target T1, PAR2 (HT-29 cells, trypsin activation) (Homo sapiens, UniProt P55085).
T1 construct: host or cells: HT-29 cells
T1 sequence (P55085 26-397): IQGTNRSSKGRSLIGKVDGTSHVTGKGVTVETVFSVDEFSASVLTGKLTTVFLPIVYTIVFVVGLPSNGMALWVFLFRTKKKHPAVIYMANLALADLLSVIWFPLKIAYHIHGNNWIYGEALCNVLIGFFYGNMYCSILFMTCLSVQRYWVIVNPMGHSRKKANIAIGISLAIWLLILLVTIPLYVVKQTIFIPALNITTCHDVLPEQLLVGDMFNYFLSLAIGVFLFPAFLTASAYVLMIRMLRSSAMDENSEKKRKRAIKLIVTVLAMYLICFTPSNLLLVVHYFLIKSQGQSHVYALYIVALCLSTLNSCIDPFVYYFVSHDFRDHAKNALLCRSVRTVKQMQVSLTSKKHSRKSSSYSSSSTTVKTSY
In words: Ca FLIPR TETRA assay, ANTAGONIST mode, stimulation with 3.1 U/mL trypsin. To be noted: HT-29 cells, antagonist mode, stimulation with 3.1 U/mL trypsin. Type of test: cell-based. The procedure, abridged:
(§1)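 Intracellular calcium is measured by fluorescence in HT-29 cells loaded with calcium 5 reagent. Compounds sit on the cells 30 min at room temperature before challenge with trypsin (3.1 U/mL) or SLIGKV (8 μM) for PAR2, or with thrombin (1 U/mL) or UTP (0.6 μM) as counter-stimuli.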

Test [2] addresses T2, PAR2 (HT-29 cells, SLIGKV activation) (Homo sapiens, UniProt P55085).
T2 construct: host or cells: HT-29 cells
T2 sequence (P55085 26-397): T1 sequence (P55085 26-397)
In words: Ca FLIPR TETRA assay, ANTAGONIST mode, stimulation with 8 μM SLIGKV. Type of test: cell-based. To be noted: HT-29 cells, antagonist mode, stimulation with 8 μM SLIGKV. A digest of the protocol: as §1

Test [3] has as its system UTP-stimulated Ca2+ response in HT-29 cells. As to the kind of experiment: Ca FLIPR TETRA assay, ANTAGONIST mode, stimulation with 0.6 μM UTP. The class given is cell-based, human. To be noted: Homo sapiens; HT-29 cells, antagonist mode, stimulation with 0.6 μM UTP. A digest of the protocol: as §1
Test [4] deals with Thrombin-stimulated Ca2+ response in HT-29 cells. As to the kind of experiment: Ca FLIPR TETRA assay, ANTAGONIST mode, stimulation with 1 U/mL Thrombin. The class given is cell-based, human. The conditions noted are these: Homo sapiens; HT-29 cells, antagonist mode, stimulation with 1 U/mL Thrombin. A digest of the protocol: as §1

Some results are limits rather than exact numbers.

The results in this text go back to US20190119282A1, “IMIDAZOPYRIDAZINES USEFUL AS INHIBITORS OF THE PAR-2 SIGNALING PATHWAY” (Vertex Pharmaceuticals Incorporated, priority 2013, published 2019).

On to `CC(F)(F)c1cc(-c2ccc(F)cc2)nn2cc(C(=O)N3CCNC(=O)C3(C)C)nc12` [Compound I-325], for which the IC50 (commonly the point on the concentration scale where inhibition reaches its midpoint) is 110 nM in test [1], 55.5 nM in test [2], above 1000 nM in test [3] and above 1000 nM in test [4].

Consider `CC(C)c1cc(-c2ccc(F)cc2)nn2cc(C(=O)N3CCN(C(=O)c4c[nH]cn4)CC3(C)C)nc12` [Compound I-326], for which the IC50 in test [1] is 12 nM; in test [2] it was 17 nM; in test [3], above 1000 nM; in test [4] it was above 1000 nM.

Consider `CC(C)c1cc(-c2ccc(F)cc2)nn2cc(C(=O)N3CCN(C(=O)c4cn[nH]c4)CC3(C)C)nc12` [Compound I-327], for which the half-inhibitory concentration (IC50) in test [1] is 5.9 nM; in test [2], 5.6 nM; in test [3] it was above 1000 nM; in test [4], above 1000 nM.

In the case of `Cc1cc(-c2cc(C(C)(C)C)c3nc(C(=O)N4CCNC(=O)C4(C)C)cn3n2)ccc1F` [Compound I-329], the 50% inhibitory concentration (IC50) in test [1] was 2.8 nM; in test [2], 5.9 nM; in test [3], above 1000 nM; in test [4] it was above 1000 nM.

For the compound `Cc1ccc(-c2cc(C(C)C)c3nc(C(=O)N4CCN(C(=O)c5cc(C)n[nH]5)CC4(C)C)cn3n2)cc1` [Compound I-330], the IC50 in test [1] was 1.4 nM; in test [2], 1.7 nM; in test [3], above 1000 nM; in test [4] it was above 1000 nM.

`Cc1ccc(-c2cc(C(C)C)c3nc(C(=O)N4CCN(C(=O)c5nc[nH]n5)CC4(C)C)cn3n2)cc1` [Compound I-331]: the IC50 in test [1] is 6.9 nM; in test [2] it was 11.4 nM; in test [3], above 1000 nM; in test [4], above 1000 nM.

`Cc1ccc(-c2cc(C(C)C)c3nc(C(=O)N4CCN(C(=O)c5nnc(C)o5)CC4(C)C)cn3n2)cc1` [Compound I-332]: the IC50 in test [1] was 11.5 nM; in test [2], 13.3 nM; in test [3], above 1000 nM; in test [4], above 1000 nM.

Turning to `Cc1ccc(-c2cc(C(C)C)c3nc(C(=O)N4CCN(C(=O)C5CC(C)(O)C5)CC4(C)C)cn3n2)cc1` (centres unmarked) [Compound I-333], the IC50 in test [1] was 3.8 nM; in test [2], 3.2 nM; in test [3], above 1000 nM; in test [4], above 1000 nM.

As for `Cc1ccc(-c2cc(C(C)C)c3nc(C(=O)N4CCN(C(=O)c5nc(C)n[nH]5)CC4(C)C)cn3n2)cc1` [Compound I-334], the IC50 in test [1] was 4.8 nM; in test [2], 4.6 nM; in test [3], above 1000 nM; in test [4] it was above 1000 nM.

For the compound `Cc1cc(C(=O)N2CCN(C(=O)c3cn4nc(-c5ccc(C)c(F)c5)cc(C(C)C)c4n3)C(C)(C)C2)[nH]n1` [Compound I-335], the IC50 was 0.6 nM in test [1], 0.8 nM in test [2], above 1000 nM in test [3] and above 1000 nM in test [4].

For the compound `Cc1ccc(-c2cc(C(C)C)c3nc(C(=O)N4CCN(C(=O)c5nc[nH]n5)CC4(C)C)cn3n2)cc1F` [Compound I-336], the IC50 is 2.8 nM in test [1], 5 nM in test [2], above 1000 nM in test [3] and above 1000 nM in test [4].

As to `Cc1nnc(C(=O)N2CCN(C(=O)c3cn4nc(-c5ccc(C)c(F)c5)cc(C(C)C)c4n3)C(C)(C)C2)o1` [Compound I-337], the IC50 in test [1] is 4.5 nM; in test [2] it was 5.4 nM; in test [3] it was above 1000 nM; in test [4], above 1000 nM.

Consider `Cc1ccc(-c2cc(C(C)C)c3nc(C(=O)N4CCN(C(=O)C5CC(C)(O)C5)CC4(C)C)cn3n2)cc1F` (centres unmarked) [Compound I-338], for which the IC50 was 1.6 nM in test [1], 2.2 nM in test [2], above 1000 nM in test [3] and above 1000 nM in test [4].

For `Cc1n[nH]c(C(=O)N2CCN(C(=O)c3cn4nc(-c5ccc(C)c(F)c5)cc(C(C)C)c4n3)C(C)(C)C2)n1` [Compound I-339], the IC50 was 1.9 nM in test [1], 1.9 nM in test [2], above 1000 nM in test [3] and above 1000 nM in test [4].

With `Cc1c[nH]c(C(=O)N2CCN(C(=O)c3cn4nc(-c5ccc(F)cc5)cc(C(C)(C)C)c4n3)C(C)(C)C2)n1` [Compound I-340], the IC50 in test [1] was 1.6 nM; in test [2] it was 1.5 nM; in test [3], above 1000 nM; in test [4], above 1000 nM.

For the compound `Cc1cc(C(=O)N2CCN(C(=O)c3cn4nc(-c5ccc(F)c(C)c5)cc(C(C)C)c4n3)C(C)(C)C2)[nH]n1` [Compound I-341], the 50% inhibitory concentration (IC50) in test [1] was 1.7 nM; in test [2] it was 2.1 nM; in test [3], above 1000 nM; in test [4], above 1000 nM.

Turning to `Cc1cc(-c2cc(C(C)C)c3nc(C(=O)N4CCN(C(=O)c5nc[nH]n5)CC4(C)C)cn3n2)ccc1F` [Compound I-342], the IC50 in test [1] is 8.2 nM; in test [2] it was 12.6 nM; in test [3] it was above 1000 nM; in test [4], above 1000 nM.

In the case of `Cc1nnc(C(=O)N2CCN(C(=O)c3cn4nc(-c5ccc(F)c(C)c5)cc(C(C)C)c4n3)C(C)(C)C2)o1` [Compound I-344], the IC50 in test [1] is 15.8 nM; in test [2] it was 15.4 nM; in test [3], above 1000 nM; in test [4], above 1000 nM.

In the case of `Cc1n[nH]c(C(=O)N2CCN(C(=O)c3cn4nc(-c5ccc(F)c(C)c5)cc(C(C)C)c4n3)C(C)(C)C2)n1` [Compound I-345], the IC50 in test [1] was 6.2 nM; in test [2] it was 5.6 nM; in test [3] it was above 1000 nM; in test [4], above 1000 nM.

For `Cc1ccc(-c2cc(C(C)(C)C)c3nc(C(=O)N4CCNC(=O)C4(C)C)cn3n2)cc1` [Compound I-347], the IC50 in test [1] was 2.3 nM; in test [2] it was 2.9 nM; in test [3] it was above 1000 nM; in test [4] it was above 1000 nM.

As for `CC(C)(C)c1cc(-c2ccccc2)nn2cc(C(=O)N3CCNC(=O)C3(C)C)nc12` [Compound I-348], the IC50 in test [1] is 5.1 nM; in test [2], 4 nM; in test [3], 360 nM; in test [4], 673 nM.

As to `CC(C)(C)c1cc(-c2ccc(C(F)F)cc2)nn2cc(C(=O)N3CCNC(=O)C3(C)C)nc12` [Compound I-349], the IC50 in test [1] was 2.6 nM; in test [2] it was 3 nM; in test [3] it was above 1000 nM; in test [4], above 1000 nM.

`Cc1cccc(-c2cc(C(C)(C)C)c3nc(C(=O)N4CCNC(=O)C4(C)C)cn3n2)c1` [Compound I-350]: the IC50 in test [1] is 13.7 nM; in test [2], 12.9 nM; in test [3], above 1000 nM; in test [4], above 1000 nM.

For the compound `CC(C)(C)c1cc(-c2ccc(F)c(F)c2)nn2cc(C(=O)N3CCNC(=O)C3(C)C)nc12` [Compound I-352], the IC50 in test [1] was 1.5 nM; in test [2], 1.2 nM; in test [3], above 1000 nM; in test [4] it was above 1000 nM.

For the compound `CC(C)c1cc(-c2ccc(Cl)cc2)nn2cc(C(=O)N3CCNC(=O)C3(C)C)nc12` [Compound I-353], the IC50 is 3 nM in test [1], 2.4 nM in test [2], above 1000 nM in test [3] and above 1000 nM in test [4].

As for `CC(C)c1cc(-c2ccc(Cl)c(F)c2)nn2cc(C(=O)N3CCNC(=O)C3(C)C)nc12` [Compound I-354], the 50% inhibitory concentration (IC50) in test [1] was 1.3 nM; in test [2], 1.2 nM; in test [3] it was above 1000 nM; in test [4] it was above 1000 nM.

Turning to `Cc1cc(C(=O)N2CCN(C(=O)c3cn4nc(-c5ccc(F)cc5)cc(C(C)(F)F)c4n3)C(C)(C)C2)[nH]n1` [Compound I-355], the IC50 in test [1] is 7 nM; in test [2] it was 9.6 nM; in test [3], above 1000 nM; in test [4], above 1000 nM.

As for `CC(C)(C)c1cc(-c2ccc(F)cc2)nn2cc(C(=O)N3CCN(C(=O)c4ccn[nH]c4=O)CC3(C)C)nc12` [Compound I-356], the IC50 in test [1] was 15 nM; in test [2], 28 nM; in test [3], above 1000 nM; in test [4] it was above 1000 nM.

Regarding `CC(C)(C)c1cc(-c2ccc(F)cc2)nn2cc(C(=O)N3CCN(C(=O)c4n[nH]c(=O)[nH]4)CC3(C)C)nc12` [Compound I-357], the IC50 is 4.4 nM in test [1], 3.3 nM in test [2], 890 nM in test [3] and above 1000 nM in test [4].

For `CC(C)(C)c1cc(-c2ccc(C(F)(F)F)cc2)nn2cc(C(=O)N3CCN(c4c[nH]cn4)C(=O)C3(C)C)nc12` [Compound I-358], the IC50 was 4.4 nM in test [1], 11.3 nM in test [2], above 1000 nM in test [3] and above 1000 nM in test [4].

As to `CC(C)(C)c1cc(-c2ccc(F)cc2)nn2cc(C(=O)N3CCN(c4cn[nH]n4)C(=O)C3(C)C)nc12` [Compound I-359], the IC50 in test [1] was 1.1 nM; in test [2] it was 1 nM; in test [3], above 1000 nM; in test [4], above 1000 nM.

Take `Cc1ccc(-c2cc(C(C)(C)C)c3nc(C(=O)N4CCN(c5c[nH]cn5)C(=O)C4(C)C)cn3n2)cc1F` [Compound I-360]: the concentration for half-maximal inhibition (IC50) was 3 nM in test [1], 4.6 nM in test [2], above 1000 nM in test [3] and above 1000 nM in test [4].
